For 1 molecule, Ki results are on record in patent publication US20040038855A1 (priority 1999, published 2004).

This test concerns the target T1, human dopamine D4 receptor (Homo sapiens, UniProt P21917).
T1 construct: purchased BioSignal, Inc. (Montreal, Canada)
The test can be described thus: Binding affinity at the human dopamine D4 receptor. Conditions: Table 3d; * = >50000; read-out: hD4 Ki. The source says: Other receptors: Cell membranes expressing human dopamine D1, D2, D4 and rat D3 receptors were purchased through BioSignal, Inc. (Montreal, Canada). Binding assays using the histamine H1 receptor; dopamine receptors; and α1A, α1B, and α2 adrenergic receptors may be carried out according to the procedures described in U.S. Pat. No. 5,780,485, the disclosure of which is hereby incorporated by reference in its entirety into this application. Binding assays using the dopamine D5 receptor may be carried out according to the procedures described in U.S. Pat. No. 5,882,855, the disclosure of which is hereby incorporated by reference in its entirety into this application. Binding assays for the human α1D adrenergic receptor may be carried out according to the procedures described in U.S. Pat. No. 6,156,518, the disclosure of which is hereby incorporated by reference in its entirety into this application.

T1 sequence (P21917 whole entry): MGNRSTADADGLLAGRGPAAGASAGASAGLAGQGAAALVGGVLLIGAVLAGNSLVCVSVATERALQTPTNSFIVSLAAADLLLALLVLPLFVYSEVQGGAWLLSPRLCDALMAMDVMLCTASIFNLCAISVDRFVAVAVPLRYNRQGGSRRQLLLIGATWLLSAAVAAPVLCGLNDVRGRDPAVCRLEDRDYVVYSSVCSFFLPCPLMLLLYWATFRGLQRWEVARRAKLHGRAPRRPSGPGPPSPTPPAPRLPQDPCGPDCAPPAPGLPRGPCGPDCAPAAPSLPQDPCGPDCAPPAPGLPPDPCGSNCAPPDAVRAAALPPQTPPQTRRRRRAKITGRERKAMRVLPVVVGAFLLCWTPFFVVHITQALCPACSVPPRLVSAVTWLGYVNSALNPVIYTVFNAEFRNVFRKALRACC

Regarding `COCC1=C(C(=O)OC)[C@H](c2ccc(F)c(F)c2)N(C(=O)NCCCN2CCC(c3cccc(NC(C)=O)c3)CC2)C(=O)N1` [Example 10, (+)-1,2,3,6-TETRAHYDRO-1-{N-[4-(3,-ACETAMIDO)-PHENYLPIPERIDIN-1-YL]PROPYL}CARBOXAMIDO-4-METHOXYMETHYL-6-(3,4-DIFLUORO-PHENYL)-2-OXOPYRIMIDINE-5-CARBOXYLIC ACID METHYL ESTER], the Ki (usually the dissociation constant of the complex between target and ligand, obtained from inhibition or displacement) is more than 50 µM.
